Experimental data: patent publication US20170022171A1, “2,5-DISUBSTITUTED CYCLOPENTANECARBOXYLIC ACIDS AND THEIR USE” (Bayer Pharma Aktiengesellschaft, priority 2014, published 2017)

Tests used:
Format in all cases: biochemical
MMP-16 = molecular target: T1, MMP-16 (Homo sapiens, UniProt P51512); experiment: In vitro MMP-16 inhibition test
T1 construct: purchased R&D Systems 1785-MP
Description: (§1) The MMP-mediated amidolytic cleavage of a suitable peptide substrate leads to an increase in fluorescent light here too. The signal intensity of the fluorescent light is directly proportional to the enzyme activity. The active concentration of a test compound at which half the enzyme is inhibited (50% signal intensity of the fluorescent light) is reported as the IC50 value.
Recombinant MMP-16 (from R&D Systems, 1785-MP) is enzymatically activated in accordance with the manufacturer's instructions using recombinant furin (from R&D Systems, 1503-SE). 1 μl of the test compound to be analysed (as a solution in DMSO, suitable concentrations e.g. 1 nM to 30 μM) is pipetted into 24 μl of activated enzyme (final concentration e.g. 1 nM) in reaction buffer (50 mM Tris/HCl pH 7.5, 10 mM CaCl2, 150 mM NaCl, 0.05% Brij®-35) in a white 384-hole microtiter plate (MTP). The enzymatic reaction is started by adding the intramolecularly quenched Mca-Lys-Pro-Leu-Gly-Leu-Dpa(Dnp)-Ala-Arg-NH2 substrate (final concentration, for example, 5 μM; R&D Systems, ES-010), so as to result in a total test volume of 50 The course of the MMP-16 reaction is measured by measuring the fluorescence intensity (excitation 320 nm, emission 410 nm) over a suitable period of time (for example over 120 min at a temperature of 32° C.).

MMP-3 = molecular target: T2, MMP-3 (Homo sapiens, UniProt P08254); experiment: In vitro MMP-3 inhibition test
T2 construct: purchased R&D Systems 513-MP
T2 sequence (P08254 100-477): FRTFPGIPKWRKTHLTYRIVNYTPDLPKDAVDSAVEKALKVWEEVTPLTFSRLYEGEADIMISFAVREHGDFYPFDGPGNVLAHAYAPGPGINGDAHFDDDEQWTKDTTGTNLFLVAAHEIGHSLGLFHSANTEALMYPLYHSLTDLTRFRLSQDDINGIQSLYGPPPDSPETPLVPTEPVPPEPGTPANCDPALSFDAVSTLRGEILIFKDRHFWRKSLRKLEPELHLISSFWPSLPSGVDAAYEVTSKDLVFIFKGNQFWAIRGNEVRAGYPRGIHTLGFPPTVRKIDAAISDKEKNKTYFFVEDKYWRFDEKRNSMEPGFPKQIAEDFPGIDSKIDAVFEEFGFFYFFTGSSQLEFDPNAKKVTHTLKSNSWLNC
Description: as §1
Recombinant MMP-3 (from R&D Systems, 513-MP) is chemically activated in accordance with the manufacturer's instructions using APMA. 1 μl of the test compound to be analysed (as a solution in DMSO, suitable concentrations, for example, 1 nM to 30 μM) is pipetted into 24 μl of activated enzyme (final concentration, for example, 2 nM) in reaction buffer (50 mM Tris/HCl pH 7.5, 10 mM CaCl2, 150 mM NaCl, 0.05% Brij®-35) in a white 384-hole microtiter plate (MTP). The enzymatic reaction is started by adding the intramolecularly quenched Mca-Arg-Pro-Lys-Pro-Val-Glu-Nval-Trp-Arg-Lys(Dnp)-NH2 substrate (final concentration, for example, 10 μM; R&D Systems, ES-002), so as to result in a total test volume of 50 The course of the MMP-3 reaction is measured by measuring the fluorescence intensity (excitation 320 nm, emission 410 nm) over a suitable period of time (for example over 120 min at a temperature of 32° C.).

MMP-1 = molecular target: T3, MMP-1 (Homo sapiens, UniProt P03956); experiment: In vitro MMP-1 inhibition test
T3 construct: purchased R&D Systems 901-MP
T3 sequence (P03956 100-469): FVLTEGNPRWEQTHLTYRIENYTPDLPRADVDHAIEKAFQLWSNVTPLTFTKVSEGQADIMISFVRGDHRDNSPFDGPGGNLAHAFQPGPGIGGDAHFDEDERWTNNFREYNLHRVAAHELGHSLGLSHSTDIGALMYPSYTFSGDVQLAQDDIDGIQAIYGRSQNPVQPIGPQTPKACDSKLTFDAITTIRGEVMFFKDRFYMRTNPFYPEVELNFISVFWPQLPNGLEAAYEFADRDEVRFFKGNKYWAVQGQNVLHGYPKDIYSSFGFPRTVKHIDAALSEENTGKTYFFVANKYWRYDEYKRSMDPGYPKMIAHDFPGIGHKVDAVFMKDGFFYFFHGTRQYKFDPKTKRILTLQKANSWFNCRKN
Description: as §1
Recombinant MMP-1 (from R&D Systems, 901-MP) is chemically activated in accordance with the manufacturer's instructions using APMA. 1 μl of the test compound to be analysed (as a solution in DMSO, suitable concentrations, for example, 1 nM to 30 μM) is pipetted into 24 μl of activated enzyme (final concentration, for example, 2 nM) in reaction buffer (50 mM Tris/HCl pH 7.5, 10 mM CaCl2, 150 mM NaCl, 0.05% Brij®-35) in a white 384-hole microtiter plate (MTP). The enzymatic reaction is started by adding the intramolecularly quenched Mca-Pro-Leu-Gly-Leu-Dpa(Dnp)-Ala-Arg-NH2 substrate (final concentration, for example, 10 μM; R&D Systems, ES-001), so as to result in a total test volume of 50 μl. The course of the MMP-1 reaction is measured by measuring the fluorescence intensity (excitation 320 nm, emission 410 nm) over a suitable period of time (for example over 120 min at a temperature of 32° C.).

T1 sequence (P51512 120-564 limits assumed): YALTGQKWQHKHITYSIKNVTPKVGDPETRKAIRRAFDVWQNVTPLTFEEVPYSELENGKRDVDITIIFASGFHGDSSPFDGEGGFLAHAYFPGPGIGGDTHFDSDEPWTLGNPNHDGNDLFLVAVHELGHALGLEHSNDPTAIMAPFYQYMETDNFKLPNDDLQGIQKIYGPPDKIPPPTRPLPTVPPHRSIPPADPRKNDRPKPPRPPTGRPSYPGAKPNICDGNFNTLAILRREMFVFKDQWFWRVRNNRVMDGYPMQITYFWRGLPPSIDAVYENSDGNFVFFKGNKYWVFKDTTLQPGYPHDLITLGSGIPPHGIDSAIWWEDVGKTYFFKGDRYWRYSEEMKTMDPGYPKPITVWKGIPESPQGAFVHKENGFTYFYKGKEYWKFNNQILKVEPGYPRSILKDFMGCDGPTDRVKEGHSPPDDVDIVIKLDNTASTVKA

| IC50 (MMP-16) [nM] | IC50 (MMP-3) [nM] | IC50 (MMP-1) [nM] | Molecule |
| --- | --- | --- | --- |
| 2500 | 1500 | > 40000 | O=C(O)[C@H]1[C@H](Cn2nnc3ccccc3c2=O)CC[C@@H]1C(=O)c1ccc(OCCC2CCCCC2)cc1 (racemic) [Example 5, (+/−)-(1RS,2RS,5SR)-2-[4-(2-Cyclohexylethoxy)benzoyl]-5-[(4-oxo-1,2,3-benzotriazin-3(4H)-yl)methyl]cyclopentanecarboxylic acid] |
| 1900 | 410 | 13000 | CCCCCCOc1ccc(C(=O)[C@@H]2CC[C@H](Cn3nnc4ccc(C)cc4c3=O)[C@H]2C(=O)O)cc1 (single isomer, unassigned) [Example 121, (+)-(1RS,2RS,5SR)-2-[4-(Hexyloxy)benzoyl]-5-[(6-methyl-4-oxo-1,2,3-benzotriazin-3(4H)-yl)methyl]cyclopentanecarboxylic acid] |
| 3200 | 840 | > 40000 | Cc1ccc2nnn(C[C@@H]3CC[C@H](C(=O)c4ccc(OCc5cccc(OC(F)(F)F)c5)cc4)[C@H]3C(=O)O)c(=O)c2c1 (racemic) [Example 109, (+/−)-(1RS,2SR,5RS)-2-[(6-Methyl-4-oxo-1,2,3-benzotriazin-3(4H)-yl)methyl]-5-(4-{[3-(trifluoromethoxy)benzyl]oxy}benzoyl)cyclopentanecarboxylic acid] |
| 5400 | 3000 | 37000 | O=C(O)[C@@H]1[C@@H](Cn2nnc3ccc(C(F)(F)F)cc3c2=O)CC[C@H]1C(=O)c1ccc(OCc2cccc(C(F)(F)F)c2)cc1 (single isomer, unassigned) [Example 19, (+)-(1RS,2SR,5RS)-2-{[4-Oxo-6-(trifluoromethyl)-1,2,3-benzotriazin-3(4H)-yl]methyl}-5-(4-{[3-(trifluoromethyl)benzyl]oxy}benzoyl)cyclopentanecarboxylic acid] |
| 3800 | 100 | 2900 | O=C(O)[C@@H]1[C@@H](Cn2nnc3ccc(C(F)(F)F)cc3c2=O)CC[C@H]1C(=O)c1ccc(SCc2cccc(Cl)c2)cc1 (single isomer, unassigned) [Example 77, (+)-(1RS,2RS,5SR)-2-{4-[(3-Chlorobenzyl)sulphanyl]benzoyl}-5-{[4-oxo-6-(trifluoromethyl)-1,2,3-benzotriazin-3(4H)-yl]methyl}cyclopentanecarboxylic acid] |
| > 40000 | 450 | > 40000 | (+)-(1RS,2SR,5RS)-2-{[4-Oxo-6-(trifluoromethyl)-1,2,3-benzotriazin-3(4H)-yl]methyl}-5-{4-[(2-phenylethy)sulphanyl]benzoyl}cyclopentanecarboxylic acid [Example 83] |
| 4500 | 2000 | > 40000 | Cc1cccc(COc2ccc(C(=O)[C@H]3CC[C@@H](Cn4nnc5ccc(C)cc5c4=O)[C@@H]3C(=O)O)cc2)c1 (racemic) [Example 97, (+/−)-(1RS,2RS,5SR)-2-{4-[(3-Methylbenzyl)oxy]benzoyl}-5-[(6-methyl-4-oxo-1,2,3-benzotriazin-3(4H)-yl)methyl]cyclopentanecarboxylic acid] |
| 920 | 180 | 3800 | O=C(O)[C@H]1[C@H](Cn2nnc3ccc(C(F)(F)F)cc3c2=O)CC[C@@H]1C(=O)c1ccc(OCC2CCCCC2)cc1 (racemic) [Example 40, (+/−)-(1RS,2RS,5SR)-2-[4-(Cyclohexylmethoxy)benzoyl]-5-{[4-oxo-6-(trifluoromethyl)-1,2,3-benzotriazin-3(4H)-yl]methyl}cyclopentanecarboxylic acid] |
| 2100 | 920 | > 40000 | Cc1ccc2nnn(C[C@H]3CC[C@@H](C(=O)c4ccc(OCc5cccc(OC(F)(F)F)c5)cc4)[C@@H]3C(=O)O)c(=O)c2c1 (single isomer, unassigned) [Example 110, (+)-(1RS,2SR,5RS)-2-[(6-Methyl-4-oxo-1,2,3-benzotriazin-3(4H)-yl)methyl]-5-(4-{[3-(trifluoromethoxy)benzyl]oxy}benzoyl)cyclopentanecarboxylic acid] |
| 2200 | 250 | 17000 | (+)-(1RS,2RS,5SR)-2-{4-[(3,4-Dichlorobenzyl)oxy]benzoyl}-5-{[4-oxo-6-(trifluoromethyl)-1,2,3-benzotriazin-3(4H)-yl]methyl}cyclopentanecarboxylic acid [Example 28] |
| 540 | 260 | 3900 | Cc1ccc2nnn(C[C@H]3CC[C@@H](C(=O)c4ccc(OCc5cccc(Cl)c5)cc4)[C@@H]3C(=O)O)c(=O)c2c1 (single isomer, unassigned) [Example 104, (+)-(1RS,2RS,5SR)-2-{4-[(3-Chlorobenzyl)oxy]benzoyl}-5-[(6-methyl-4-oxo-1,2,3-benzotriazin-3(4H)-yl)methyl]cyclopentanecarboxylic acid] |
| 170 | 1100 | 28000 | O=C(O)[C@H]1[C@H](Cn2nnc3ccccc3c2=O)CC[C@@H]1C(=O)c1ccc(OCC2CCCC2)cc1 (racemic) [Example 4, (+/−)-(1RS,2RS,5SR)-2-[4-(Cyclopentylmethoxy)benzoyl]-5-[(4-oxo-1,2,3-benzotriazin-3(4H)-yl)methyl]cyclopentanecarboxylic acid] |
| 130 | 170 | 5200 | O=C(O)[C@H]1[C@H](Cn2nnc3ccccc3c2=O)CC[C@@H]1C(=O)c1ccc(OCc2ccc(F)cc2)cc1 (racemic) [Example 1, (+/−)-(1RS,2RS,5SR)-2-{4-[(4-Fluorobenzyl)oxy]benzoyl}-5-[(4-oxo-1,2,3-benzotriazin-3(4H)-yl)methyl]cyclopentanecarboxylic acid] |
| 670 | 680 | 9600 | Cc1cccc(COc2ccc(C(=O)[C@@H]3CC[C@H](Cn4nnc5ccc(C)cc5c4=O)[C@H]3C(=O)O)cc2)c1 (single isomer, unassigned) [Example 98, (+)-(1RS,2RS,5SR)-2-{4-[(3-Methylbenzyl)oxy]benzoyl}-5-[(6-methyl-4-oxo-1,2,3-benzotriazin-3(4H)-yl)methyl]cyclopentanecarboxylic acid] |
| 4500 | 100 | 3800 | O=C(O)[C@H]1[C@H](Cn2nnc3ccc(C(F)(F)F)cc3c2=O)CC[C@@H]1C(=O)c1ccc(OCc2ccccc2)cc1 (racemic) [Example 11, (+/−)-(1RS,2RS,5SR)-2-[4-(Benzyloxy)benzoyl]-5-{[4-oxo-6-(trifluoromethyl)-1,2,3-benzotriazin-3(4H)-yl]methyl}cyclopentanecarboxylic acid] |

| Molecule | IC50 (MMP-16) [nM] | IC50 (MMP-3) [nM] | IC50 (MMP-1) [nM] |
| --- | --- | --- | --- |
| CCCCOc1ccc(C(=O)[C@@H]2CC[C@H](Cn3nnc4ccc(C(F)(F)F)cc4c3=O)[C@H]2C(=O)O)cc1 (single isomer, unassigned) [Example 67, (+)-(1RS,2RS,5SR)-2-(4-Butoxybenzoyl)-5-{[4-oxo-6-(trifluoromethyl)-1,2,3-benzotriazin-3(4H)-yl]methyl}cyclopentanecarboxylic acid] | 180 | 140 | 5200 |
